# Reference: ChEMBL document CHEMBL4184220, “Identification of novel plasminogen activator inhibitor-1 inhibitors with improved oral bioavailability: Structure optimization of N-acylanthranilic acid derivatives” (Bioorg Med Chem Lett, 2018)
# What was measured:
# [1] = Tmax in Wistar rat at 5 mg/kg, po administered as triple or quadruple dosing measured after 1 to 24 hrs by reverse-phase HPLC method; format: ADME, organism-based; conditions: in vivo
# [2] = Cmax in Wistar rat at 5 mg/kg, po administered as triple or quadruple dosing measured after 1 to 24 hrs by reverse-phase HPLC method; format: ADME, organism-based; set-up: dose 5 mg/kg, route oral; conditions: in vivo
# [3] = Half life in Wistar rat at 5 mg/kg, po administered as triple or quadruple dosing measured after 1 to 24 hrs by reverse-phase HPLC method; format: ADME, organism-based; conditions: in vivo
# [4] = target: T1, Plasminogen activator inhibitor 1 (Homo sapiens, UniProt P05121); assay: Inhibition of human PAI-1 assessed as remaining enzyme activity by measuring p-nitroaniline release pre-incubated for 15 mins before 2 nM […] addition for 15 mins using 5 nM enzyme and chromogenic substrate S-2288 by spectrophotometry
# T1 sequence (P05121 whole entry): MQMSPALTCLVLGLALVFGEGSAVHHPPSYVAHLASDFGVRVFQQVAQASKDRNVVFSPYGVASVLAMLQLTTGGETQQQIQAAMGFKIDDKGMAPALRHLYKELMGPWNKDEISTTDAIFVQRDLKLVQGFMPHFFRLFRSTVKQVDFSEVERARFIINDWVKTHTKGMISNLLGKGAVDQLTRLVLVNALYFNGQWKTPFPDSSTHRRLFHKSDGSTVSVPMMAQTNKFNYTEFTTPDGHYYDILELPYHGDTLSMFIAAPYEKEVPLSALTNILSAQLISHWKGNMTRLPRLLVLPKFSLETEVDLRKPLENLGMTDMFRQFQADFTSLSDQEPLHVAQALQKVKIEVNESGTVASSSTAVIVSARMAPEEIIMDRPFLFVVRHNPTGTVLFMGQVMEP
# [5] = Tmax in Wistar rat at 50 mg/kg, po administered as single dose measured after 1 to 24 hrs by reverse-phase HPLC method; format: ADME, organism-based; conditions: in vivo
# [6] = Cmax in Wistar rat at 50 mg/kg, po administered as single dose measured after 1 to 24 hrs by reverse-phase HPLC method; format: ADME, organism-based; set-up: dose 50 mg/kg, route oral; conditions: in vivo
# [7] = Half life in Wistar rat at 5 mg/kg, po administered as single dose measured after 1 to 24 hrs by reverse-phase HPLC method; conditions: in vivo
# [8] = Tmax in Wistar rat at 5 mg/kg, po administered as single dose measured after 1 to 24 hrs by reverse-phase HPLC method; format: ADME, organism-based; conditions: in vivo
# [9] = Cmax in Wistar rat at 5 mg/kg, po administered as single dose measured after 1 to 24 hrs by reverse-phase HPLC method; format: ADME, organism-based; set-up: dose 5 mg/kg, route oral; conditions: in vivo
# [10] = Half life in Wistar rat at 50 mg/kg, po administered as single dose measured after 1 to 24 hrs by reverse-phase HPLC method; conditions: in vivo
# [11] = target: T1, Plasminogen activator inhibitor 1; assay: Inhibition of human PAI-1 assessed as remaining enzyme activity by measuring p-nitroaniline release pre-incubated for 15 mins before 9.8 nM human tPA substrate addition for 15 mins using 24.5 nM enzyme and chromogenic substrate S-2288 by spectrophotometry
Compound,Tmax [1] [h],Cmax [2] [µM],half-life [3] [min],IC50 [4] [nM],other results
O=C(Nc1ccc(Cl)cc1C(=O)O)c1ccc(-c2ccccc2)cc1,2,73.5,624,2980,
O=C(Nc1ccc(Cl)cc1C(=O)O)c1cccc(C23CC4CC(CC(C4)C2)C3)c1,2,4.4,138,1860,
O=C(COCC(=O)Nc1ccc(Cl)cc1C(=O)[O-])Nc1cccc(-c2ccc(F)cc2)c1.[Na+],,,,,Tmax [5]: 1 h; Cmax [6]: 62.8 µM
O=C(COCC(=O)Nc1ccc(Cl)cc1C(=O)[O-])Nc1cccc(-n2cccc2)c1.[Na+],,,,,half-life [7]: 132 min; Tmax [8]: 2 h; Cmax [9]: 7.4 µM
O=C(COCC(=O)Nc1ccc(Cl)cc1C(=O)O)Nc1cccc(-c2ccoc2)c1,,,,,Tmax [8]: 1 h; Tmax [5]: 1 h; Cmax [9]: 17.9 µM; Cmax [6]: 149 µM
O=C(NCc1cccc(-c2ccoc2)c1)C(=O)Nc1ccc(Cl)cc1C(=O)O,2,41.6,> 1320,,
O=C(COc1cccc(-c2ccoc2)c1)Nc1ccc(Cl)cc1C(=O)O,2,56.3,114,,
COc1cccc(-c2ccc(C)c(NC(=O)COCC(=O)Nc3ccc(Cl)cc3C(=O)O)c2)c1,,,,,half-life [7]: 90 min; Tmax [8]: 2 h; Cmax [9]: 9.4 µM
O=C(Nc1ccc(Cl)cc1C(=O)O)c1ccc(C(=O)c2ccccc2)cc1,1,35,54,4110,
O=C(COCC(=O)Nc1ccc(Cl)cc1C(=O)[O-])Nc1cccc(-c2cccnc2)c1.[Na+],,,,,Tmax [5]: 2 h; Cmax [6]: 15.1 µM
Cc1ccc(-c2ccc(F)cc2)cc1NC(=O)COCC(=O)Nc1ccc(Cl)cc1C(=O)O,,,,,half-life [10]: 108 min; Tmax [5]: 1 h; Cmax [6]: 92.7 µM
O=C(Nc1ccc(Cl)cc1C(=O)[O-])c1cccc(-c2cccc3cccnc23)c1.[Na+],1,22.2,150,3630,
O=C(Nc1ccc(Cl)cc1C(=O)O)c1ccc(C23CC4CC(CC(C4)C2)C3)cc1,2,13.8,258,1170,
O=C(COCC(=O)Nc1ccc(Cl)cc1C(=O)O)Nc1cccc(-c2ccsc2)c1,,,,,Tmax [5]: 2 h; Cmax [6]: 86.5 µM
O=C(COCC(=O)Nc1ccc(Cl)cc1C(=O)O)Nc1ccc(-c2ccncc2)cc1,,,,,Tmax [5]: 6 h; Cmax [6]: 7.8 µM
O=C(COCC(=O)Nc1ccccc1-c1ccc(F)cc1)Nc1ccc(Cl)cc1C(=O)O,,,,,Tmax [5]: 1 h; Cmax [6]: 41.8 µM
COc1ccccc1-c1ccc(C)c(NC(=O)COCC(=O)Nc2ccc(Cl)cc2C(=O)O)c1,,,,,half-life [7]: 150 min; Tmax [8]: 2 h; Cmax [9]: 2.08 µM
CC(=O)Nc1ccc(-c2ccc(C)c(NC(=O)COCC(=O)Nc3ccc(Cl)cc3C(=O)O)c2)cc1,,,,,half-life [10]: 84 min; Tmax [5]: 2 h; Cmax [6]: 0.32 µM

Compound,Tmax [1] [h],Cmax [2] [µM],half-life [3] [min],IC50 [4] [nM],other results
O=C(COCC(=O)Nc1ccc(Cl)cc1C(=O)O)Nc1ccc(-c2ccoc2)cc1,,,,,half-life [7]: 252 min; Tmax [8]: 2 h; Cmax [9]: 17.6 µM
O=C(COCC(=O)Nc1ccc(Cl)cc1C(=O)O)Nc1cccc(-c2ccncc2)c1,,,,,half-life [10]: > 1080 min; Tmax [5]: 6 h; Cmax [6]: 18 µM
O=C(Nc1ccc(Cl)cc1C(=O)O)c1ccc(-c2cccs2)cc1,2,38.4,114,> 20000,
O=C(COCC(=O)Nc1ccc(Cl)cc1C(=O)O)Nc1cccc(-c2cn[nH]c2)c1,,,,,half-life [7]: 186 min; Tmax [8]: 1 h; Cmax [9]: 1.7 µM
O=C(Nc1ccc(Cl)cc1C(=O)O)c1cccc(C2CCCCC2)c1,1,3.3,84,2420,
O=C(COCC(=O)Nc1ccc(Cl)cc1C(=O)O)Nc1cccc(-c2ccno2)c1,,,,,half-life [7]: 360 min; Tmax [8]: 1 h; Cmax [9]: 14 µM
O=C(CSCC(=O)Nc1ccc(Cl)cc1C(=O)O)Nc1cccc(-c2ccoc2)c1,1,5.4,156,,
O=C(COCC(=O)Nc1ccc(Cl)cc1C(=O)O)Nc1cccc(C(F)(F)F)c1,,,,,half-life [10]: 48 min; Tmax [5]: 1 h; Cmax [6]: 58.6 µM
O=C(Nc1ccc(Cl)cc1C(=O)O)c1cccc(-c2cccc3ccccc23)c1,2,6.3,102,900,
O=C(COCC(=O)Nc1ccc(Cl)cc1C(=O)O)Nc1cccc(-c2ccon2)c1,,,,,half-life [7]: 114 min; Tmax [8]: 2 h; Cmax [9]: 2 µM
O=C(COCC(=O)Nc1ccc(Cl)cc1C(=O)[O-])Nc1cccc(-c2ccccn2)c1.[Na+],,,,,half-life [10]: 144 min; Tmax [5]: 1 h; Cmax [6]: 136 µM
O=C(COCC(=O)N1CCN(C(c2ccccc2)c2ccccc2)CC1)Nc1ccc(Cl)cc1C(=O)O,,,,,half-life [10]: 150 min; Tmax [5]: 2 h; Cmax [6]: 34.2 µM; IC50 [11]: 7.94 µM
COc1ccc(-c2ccc(C)c(NC(=O)COCC(=O)Nc3ccc(Cl)cc3C(=O)O)c2)cc1,,,,,half-life [7]: 60 min; Tmax [8]: 2 h; Cmax [9]: 2.2 µM
O=C(COCC(=O)Nc1ccc(Cl)cc1C(=O)O)Nc1cccc(-c2ccco2)c1,,,,,half-life [7]: 240 min; Tmax [8]: 2 h; Cmax [9]: 11.5 µM
O=C(Cc1cccc(-c2ccoc2)c1)Nc1ccc(Cl)cc1C(=O)O,2,43.1,114,,
CCN(C(=O)COCC(=O)Nc1ccc(Cl)cc1C(=O)O)c1cc(-c2ccc(F)cc2)ccc1C,,,,,half-life [7]: 54 min; Tmax [8]: 1 h; Cmax [9]: 0.82 µM
Cn1cc(-c2cccc(NC(=O)COCC(=O)Nc3ccc(Cl)cc3C(=O)O)c2)cn1,,,,,half-life [10]: 594 min; Tmax [5]: 2 h; Cmax [6]: 20.5 µM

# Continued, in another order:
Tmax [1] [h],Cmax [2] [µM],half-life [3] [min],IC50 [4] [nM],Compound,other results
2,1.1,210,1670,O=C(Nc1ccc(Cl)cc1C(=O)[O-])c1cccc(-c2cnc3ccccc3c2)c1.[Na+],
6,1,552,3190,O=C(Nc1ccc(Cl)cc1C(=O)[O-])c1cccc(-c2cncc3ccccc23)c1.[Na+],
2,1.2,630,1840,O=C(Nc1ccc(Cl)cc1C(=O)[O-])c1cccc(-c2cccc3cnccc23)c1.[Na+],
2,14,162,,O=C(COCC(=O)Nc1ccc(Cl)cc1C(=O)O)NCc1cccc(-c2ccoc2)c1,
1,45.5,108,21600,O=C(Nc1ccc(Cl)cc1C(=O)O)c1ccc(C2CCOCC2)cc1,
6,64.2,798,5520,O=C(Nc1ccc(Cl)cc1C(=O)O)c1ccc(Oc2ccccc2)cc1,
2,22.5,102,,O=C(Nc1cccc(-c2ccoc2)c1)C(=O)Nc1ccc(Cl)cc1C(=O)O,
1,22.3,300,> 10000,CC(C)Oc1ccc(C(=O)Nc2ccc(Cl)cc2C(=O)O)cc1,
2,5.2,96,> 40000,O=C(Nc1ccc(Cl)cc1C(=O)[O-])c1cccc(-c2ccncc2)c1.[Na+],
1,64.9,204,5200,CC(C)(C)c1ccc(C(=O)Nc2ccc(Cl)cc2C(=O)O)cc1,
2,17,96,2820,O=C(Nc1ccc(Cl)cc1C(=O)O)c1cccc(-c2ccccc2)c1,
2,29.4,120,,O=C(Nc1ccc(Cl)cc1C(=O)O)c1cccc(-c2ccoc2)c1,
1,15.2,42,2400,O=C(Nc1ccc(Cl)cc1C(=O)O)c1ccc(C2CCCCC2)cc1,
1,5.2,42,2310,O=C(Nc1ccc(Cl)cc1C(=O)O)c1cccc(C2=CCCCC2)c1,
